Assay results published in patent US10309967B2, “Methods of diagnosing bipolar disorders and screening for therapeutic compounds” (National University Corporation Chiba University, priority 2015, dated 2019).
“Also recorded” adds a separate entry of the source.

Test system: CSF samples from rats
Test: Metabolomics (CE-TOFMS) of CSF samples from rats chronically treated with Li or VPA
Format: in vivo, rat
Settings: chronic (4-weeks) treatment via drinking water
Description: Data from human samples are presented as mean±standard deviation (SD). Statistical analysis was performed using SAS software version 9.3 (SAS Institute, Cary, N.C.). Analyses of metabolites between control and BD groups were performed using unpaired t-tests and Wilcoxon rank sum tests. A logistic regression model with a stepwise selection method was used for the multivariate analysis and multiple regression analysis (consistent with description in Allen et al., Technometrics. 1974; 16(1):125-127; and Miller et al., Chapman and Hall. 1974, which are incorporated in their entireties by reference herein). […] The Mann-Whitney U test (two-tailed) was used to evaluate changes in expression levels of the ACO and IDH genes between control and BD groups. Rat data are presented as mean±SD. To determine the effects of drug treatment, a one-way ANOVA, followed by the post hoc Dunnett's test was used. P values of less than 0.05 for two-tailed tests were considered statistically significant.
The volume (50 μL) of CSF sample was added to 450 μL it methanol containing internal standards, and mixed. Then, 450 μL chloroform and 200 μL Milli-Q water was added to the mixture. After mixture, the mixture was centrifuged at 2,300×g and 4° C. for 5 min. Subsequently, 800 μL of upper aqueous layer was centrifugally filtered through a Millipore 5-kDa cutoff filter at 9,100×g and 4° C. for 120 min to remove proteins. The filtrate was centrifugally concentrated and re-suspended in 25 μL of Milli-Q water for analysis.
Cationic compounds were measured in the positive mode of CE-TOFMS (Agilent CE-TOFMS system Machine No. 3, Fused silica capillary, i.d. 50 μM×80 cm), and anionic compounds were measured in the positive and negative modes of CE-MS/MS (Agilent CE system and Agilent 6400 TripleQuad LC/MS Machine No. QqQ01, Fused silica capillary, i.d. 50 μM×80 cm), as reported previously (Soga et al., Anal. Chem. 2000; 72(6):1236-1241; Soga et al., Anal Chem. 2002; 74(10):2233-2239; Soga et al., J. Proteome Res. 2003; 2(5):488-494, which are incorporated in their entireties by reference herein). Peaks detected by CE-TOFMS and CE-MS/MS were extracted using automatic integration software (MasterHands, Keio University, Tsuruoka, Japan) (Sugimoto et al., Metabolomics. 2009; 6(1):78-95, which is incorporated in its entirety by reference herein) and MassHunter Quantitative Analysis B.04.00, Agilent Technologies, Santa Clara, Calif., USA) in order to obtain peak information including m/z, migration time (MT), and peak area. The peaks were annotated with putative metabolites from the HMT metabolite database based on their MTs in CE and m/z values determined by TOFMS. The tolerance range for the peak annotation was configured at ±0.5 min for MT and ±10 ppm for m/z. In addition, concentrations of metabolites were calculated by normalizing the peak area of each metabolite with respect to the area of the internal standard and by using standard curves, which were obtained by three-point calibrations.
The CSF concentrations of 116 major metabolites from several pathways were measured. […] Male Sprague-Dawley rats (Japan SLC Inc., Shizuoka, Japan) aged 6 weeks old were used in this study. All rats were housed in groups of three per cage in a room maintained at 23° C.±2° C. and 60±10% humidity with a 12/12 hour light/dark cycle (lights on at 7:00 a.m.). The rats were given free access to food and water. Animal care and use were conducted in accordance with the Institutional Guidelines for Animal Care and Use of Otsuka Pharmaceutical Co., Ltd. (Tokushima, Japan). […] The drinking water was replaced twice a week. […] All animals were decapitated on day 30 after CSF sampling, and brain regions (prefrontal cortex, and hippocampus) were dissected rapidly on ice. Metabolomic analyses of rat CSF samples were performed as described herein.

O=C([O-])[O-].[Li+].[Li+] [Li, lithium carbonate]
2-Oxoisovaleric acid Mean (rat CSF): 4.3 µM | 3-Phosphoglyceric acid Mean (rat CSF): 0.3 µM | ADP-ribose Mean (rat CSF): 0.010 µM | Adenosine Mean (rat CSF): 0.2 µM | Alanin (Ala) Mean (rat CSF): 54 µM | Arginine (Arg) Mean (rat CSF): 31 µM | Argininosuccinic acid Mean (rat CSF): 1.0 µM | Asparagic acid (Asp) Mean (rat CSF): 1.8 µM | Asparagine (Asn) Mean (rat CSF): 4.8 µM | Carnosine Mean (rat CSF): 0.5 µM | Choline Mean (rat CSF): 7.5 µM | Citric acid Mean (rat CSF): 57 µM | Citrulline Mean (rat CSF): 3.8 µM | Creatine Mean (rat CSF): 60 µM | Creatinine Mean (rat CSF): 6.0 µM | Dihydroxyacetone phosphate Mean (rat CSF): 0.6 µM | Fructose 6-phosphate Mean (rat CSF): 0.2 µM | Glucose 6-phosphate Mean (rat CSF): 0.5 µM | Glutamic acid (Glu) Mean (rat CSF): 2.0 µM | Glutamine (Gln) Mean (rat CSF): 534 µM | Glutathione (GSSG) Mean (rat CSF): 1.1 µM | Glyceraldehyde 3-phosphate Mean (rat CSF): 0.9 µM | Glycerol 3-phosphate Mean (rat CSF): 7.2 µM | Glycine (Gly) Mean (rat CSF): 5.5 µM | Histidine (His) Mean (rat CSF): 7.1 µM | Homoserine Mean (rat CSF): 0.10 µM | Hydroxyproline Mean (rat CSF): 1.1 µM | Hypoxanthine Mean (rat CSF): 1.2 µM | Inosine monophosphate (IMP) Mean (rat CSF): 0.10 µM | Isocitric acid Mean (rat CSF): 2.0 µM | Isoleucine (Ile) Mean (rat CSF): 1.5 µM | Lactic acid Mean (rat CSF): 2,438 μM | Leucine (Leu) Mean (rat CSF): 5.1 µM | Lysine (Lys) Mean (rat CSF): 71 µM | Malic acid Mean (rat CSF): 2.2 µM | Methionine (Met) Mean (rat CSF): 4.4 µM | Mevalonic acid Mean (rat CSF): 0.003 µM | N-Carbamoylaspartic acid Mean (rat CSF): 0.04 µM | Nicotinamide Adenine dinucleotide (NAD^+) Mean (rat CSF): 0.8 µM | Nicotinamide Adenine dinucleotide phophate (NADP^+) Mean (rat CSF): 0.09 µM | Ornithine Mean (rat CSF): 2.3 µM | Phenylalanine (Phe) Mean (rat CSF): 3.1 µM | Phosphocreatine Mean (rat CSF): 6.9 µM | Phosphoenolpyruvic acid Mean (rat CSF): 0.2 µM | Pyruvic acid Mean (rat CSF): 29 µM | Ribose 5-phosphate Mean (rat CSF): 0.07 µM | Ribulose 5-phosphate Mean (rat CSF): 0.10 µM | S-Adenosylmethionine Mean (rat CSF): 0.5 µM | Serine (Ser) Mean (rat CSF): 82 µM | Succinic acid Mean (rat CSF): 9.0 µM | Threonine (Thr) Mean (rat CSF): 54 µM | Tryptophan (Trp) Mean (rat CSF): 1.2 µM | Tyrosine (Tyr) Mean (rat CSF): 5.4 µM | UDP-glucose Mean (rat CSF): 0.3 µM | Urea Mean (rat CSF): 4,332 μM | Uric acid Mean (rat CSF): 1.8 µM | Valine (Val) Mean (rat CSF): 2.3 µM | Xanthine Mean (rat CSF): 1.6 µM | cyclic AMP (cAMP) Mean (rat CSF): 0.007 µM | cyclic GMP (cGMP) Mean (rat CSF): 0.003 µM | CSF levels of argininosuccinic acid (rats, vs control): significantly increased | CSF levels of isocitrate (rats, vs control): not altered; also recorded: did not alter | CSF levels of succinic acid (rats, vs control): significantly increased

CCCC(CCC)C(=O)[O-].[Na+] [VPA, valproic acid sodium salt]
2-Oxoisovaleric acid Mean (rat CSF): 4.3 µM | 3-Phosphoglyceric acid Mean (rat CSF): 0.3 µM | ADP-ribose Mean (rat CSF): 0.01 µM | Adenosine Mean (rat CSF): 0.2 µM | Alanin (Ala) Mean (rat CSF): 50 µM | Arginine (Arg) Mean (rat CSF): 27 µM | Argininosuccinic acid Mean (rat CSF): 0.7 µM | Asparagic acid (Asp) Mean (rat CSF): 1.6 µM | Asparagine (Asn) Mean (rat CSF): 4.0 µM | Carnosine Mean (rat CSF): 0.5 µM | Choline Mean (rat CSF): 7.8 µM | Citric acid Mean (rat CSF): 44 µM | Citrulline Mean (rat CSF): 3.6 µM | Creatine Mean (rat CSF): 56 µM | Creatinine Mean (rat CSF): 6.2 µM | Dihydroxyacetone phosphate Mean (rat CSF): 0.8 µM | Fructose 6-phosphate Mean (rat CSF): 0.2 µM | Glucose 6-phosphate Mean (rat CSF): 0.5 µM | Glutamic acid (Glu) Mean (rat CSF): 1.6 µM | Glutamine (Gln) Mean (rat CSF): 598 µM | Glutathione (GSSG) Mean (rat CSF): 0.9 µM | Glyceraldehyde 3-phosphate Mean (rat CSF): 1.1 µM | Glycerol 3-phosphate Mean (rat CSF): 7.0 µM | Glycine (Gly) Mean (rat CSF): 6.5 µM | Histidine (His) Mean (rat CSF): 7.1 µM | Homoserine Mean (rat CSF): 0.09 µM | Hydroxyproline Mean (rat CSF): 1.1 µM | Hypoxanthine Mean (rat CSF): 1.4 µM | Inosine monophosphate (IMP) Mean (rat CSF): 0.1 µM | Isocitric acid Mean (rat CSF): 1.6 µM | Isoleucine (Ile) Mean (rat CSF): 1.2 µM | Lactic acid Mean (rat CSF): 2,361 μM | Leucine (Leu) Mean (rat CSF): 4.5 µM | Lysine (Lys) Mean (rat CSF): 85 µM | Malic acid Mean (rat CSF): 0.7 µM | Methionine (Met) Mean (rat CSF): 3.3 µM | N-Carbamoylaspartic acid Mean (rat CSF): 0.02 µM | Nicotinamide Adenine dinucleotide (NAD^+) Mean (rat CSF): 0.8 µM | Nicotinamide Adenine dinucleotide phophate (NADP^+) Mean (rat CSF): 0.09 µM | Ornithine Mean (rat CSF): 2.2 µM | Phenylalanine (Phe) Mean (rat CSF): 2.9 µM | Phosphocreatine Mean (rat CSF): 6.8 µM | Phosphoenolpyruvic acid Mean (rat CSF): 0.15 µM | Pyruvic acid Mean (rat CSF): 21 µM | Ribose 5-phosphate Mean (rat CSF): 0.06 µM | Ribulose 5-phosphate Mean (rat CSF): 0.08 µM | S-Adenosylmethionine Mean (rat CSF): 0.5 µM | Serine (Ser) Mean (rat CSF): 83 µM | Succinic acid Mean (rat CSF): 7.4 µM | Threonine (Thr) Mean (rat CSF): 41 µM | Tryptophan (Trp) Mean (rat CSF): 1.0 µM | Tyrosine (Tyr) Mean (rat CSF): 5.2 µM | UDP-glucose Mean (rat CSF): 0.3 µM | Urea Mean (rat CSF): 3,714 μM | Uric acid Mean (rat CSF): 1.8 µM | Valine (Val) Mean (rat CSF): 2.1 µM | Xanthine Mean (rat CSF): 1.5 µM | cyclic AMP (cAMP) Mean (rat CSF): 0.006 µM | cyclic GMP (cGMP) Mean (rat CSF): 0.003 µM | CSF levels of arginine (rats, vs control): significantly altered | CSF levels of argininosuccinic acid (rats, vs control): significantly altered | CSF levels of glutamine (rats, vs control): significantly altered | CSF levels of threonine (rats, vs control): significantly altered | CSF levels of tryptophan (rats, vs control): significantly altered | CSF levels of isocitrate (rats, vs control, sodium salt): not altered; also recorded: did not alter
